This note sets out measurements from EP0382875A1, “Dispersant for biologically active peptide” (Matuo, Yuhsy, priority 1989, dated 1990).

Data set [1] in a line: Solubility in water and organic solvents. It counts as physicochemical. An excerpt: That is, CHAPS or CHAPSO can be removed by utilizing difference in solubility in organic solvents. CHAPS or CHAPSO is soluble in water, methanol and dimethylsulfoxide but insoluble in other solvents (acetone, acetonitrile, ether, chloroform, 2-methyl-1-propanol, N,N-dimethylformamide, isoamly alcohol, ethanol, hexane, xylene, petroleum ether, benzene, n-heptane, toluene). Utilizing the difference in solubility, CHAPS or CHAPSO can easily be removed.

Data set [2] in a line: Heparin-5PW HPLC of extract from BPH tissues with or without CHAPS (elution of FGF activity). It counts as physicochemical, human. The note with it: Heparin-5PW HPLC of BPH tissue extract, 0.1% CHAPS versus no CHAPS. The text has this: An extract from human benign prostatic hypertrophy (BPH) tissues was subjected to Heparin-5PW HPLC without adding any CHAPS thereto.
An extract from BPH tissues was subjected to Heparin-5PW HPLC in the presence of 0.1% CHAPS thereto.

Data set [3] relates to BALB/C3T3 cells. The experiment in a line: Adsorption of FGF to containers of different kinds, with or without CHAPS (FGF activity after storage). It counts as physicochemical, mouse. The following applies: addition of 0.1% CHAPS; FGF 0.5 µg/ml PBS; 4°C for 2 days. As to the method:
(§1) Next, examples of the present invention are shown. DNA synthesis activity or FGF activity of samples was determined by the method shown in Example 1 and expressed by cpm (counts per minute) x 10⁻⁴/well/3h.
(§2) BALB/C3T3 cells, a kind of fibroblasts established from a mouse fetus were suspended in 3% bovine serum-containing DME medium (DME-3% CS) at a concentration of 2 x 10⁴/ml. One milliliter of the suspension was taken and cultured at 37°C for 5 hours on a 24 well tissue culture dish. Then, the medium was replaced by 1 ml of DME-1% CS followed by culturing at 37°C for 48 hours. A sample (2 to 20 µl) was added thereto, followed by culturing for further 16 hours.
Then, 10 µl of 2 x 10⁻⁵ M[³H]thymidine (40 µCi/ml) was supplemented. After culturing for 3 hours, radioactivity incorporated into DNA fraction was measured. That is, after the medium was removed, cells were rinsed with 1 ml of PBS (phosphate-buffered saline) once and 3 times with 1 ml of cold 10% TCA (trichloroacetic acid). Then, 1 ml of 0.5 M NaOH was added thereto. […] Scintillator cocktail, 6 ml, was added thereto to measure the radioactivity.
Commercially available FGF (fibroblast growth factor) was charged in containers shown in Table 1, respectively, in 0.5 µg/ml PBS; the containers were charged with or without 0.1% CHAPS. After storing at 4°C for 2 days, FGF activity in each container was measured.

Data set [4] concerns BALB/C3T3 cells. Kind of data set: Thermal stability of FGF at 50°C with or without CHAPS (FGF activity). It counts as physicochemical, mouse. The note with it: FGF 5 µg/ml, 1% CHAPS, 50°C for 1 hour. The protocol:
as §1, §2
(§3) Then, 10 µl of 2 x 10⁻⁵ M[³H]thymidine (40 µCi/ml) was supplemented. After culturing for 3 hours, radioactivity incorporated into DNA fraction was measured. That is, after the medium was removed, cells were rinsed with 1 ml of PBS (phosphate-buffered saline) once and 3 times with 1 ml of cold 10% TCA (trichloroacetic acid). Then, 1 ml of 0.5 M NaOH was added thereto. After allowing to stand at room temperature for 15 minutes, the mixture was neutralized with 5 M HCl. Scintillator cocktail, 6 ml, was added thereto to measure the radioactivity.
After commercially available FGF (5 µg/ml) added with 1% CHAPS or added with no CHAPS was allowed to stand at 50°C for 1 hour, stability of FGF was examined. […]

Data set [5] relates to BALB/C3T3 fibroblasts. Kind of data set: Cytotoxicity of dispersants: DNA synthesis activity ([3H]thymidine incorporation) in cultured fibroblasts. It counts as cell-based, mouse. The following applies: added to medium at 1 x 10⁻⁴ to 1 x 10⁻¹%, culture 19 hours; compared with NOG, SB12, Triton X-100, NP-40. The protocol:
Upon culturing BALB/C3T3 fibroblasts in bovine serum-supplemented medium on a 24 well plate, CHAPS, NOG (1-O-n-octyl-β-D-glucopyranoside), SB12 (3-(dodecylmethylammonio)-1-propane sulfonate: sulfobetaine 12), Triton X-100 and NP-40 (Nonidet P-40) were added to the medium at concentrations of 1 x l0⁻⁴ to 1 x 10⁻¹%.
as §2, §3
For orientation: Incorporation of labelled thymidine or its analogues reports DNA synthesis.

The mark [6] stands for this setting: in other solvents (acetone, acetonitrile, ether, chloroform, 2-methyl-1-propanol, N,N-dimethylformamide, isoamyl alcohol, ethanol, hexane, xylene, petroleum ether, benzene, n-heptane, toluene).
[7] abbreviates: in water, methanol and dimethylsulfoxide.

`C[C@H](CCC(=O)NCCC[N+](C)(C)CC(O)CS(=O)(=O)[O-])[C@H]1CC[C@H]2[C@@H]3[C@H](O)C[C@@H]4C[C@H](O)CC[C@]4(C)[C@H]3C[C@H](O)[C@]12C` (some centres unmarked) [CHAPSO, 3-(3-cholamidopropyl)dimethylammonio]-2-hydroxy-1-propane sulfonate]: the solubility entry in data set [1] (setting [6]) is given as “insoluble”; in data set [1] (setting [7]), “soluble”.

For `C[C@H](CCC(=O)NCCC[N+](C)(C)CCCS(=O)(=O)[O-])[C@H]1CC[C@H]2[C@@H]3[C@H](O)C[C@@H]4C[C@H](O)CC[C@]4(C)[C@H]3C[C@H](O)[C@]12C` [CHAPS, 3-[(3-cholamidopropyl)dimethylammonio]-1-propane sulfonate], the solubility entry was “insoluble” in data set [1] (setting [6]) and “soluble” in data set [1] (setting [7]). The “adsorption of FGF onto carrier and device during chromatographies” value in data set [2] was “prevents adsorption of FGF onto a carrier and device”. The “adsorption of FGF onto the containers” value in data set [3] is on record as “effectively prevented”. Also, the “effect on thermal instability of FGF” value in data set [4] is given as “stabilizing effect”. The “cytotoxicity (DNA synthesis activity)” value in data set [5] is “least cytotoxicity among various surface active agents”.
